Tests used:
Assay type in all cases: in vivo
[1] = system: dogs suffering from seizures; test: Example 6: seizures in dogs; details: seizure scale 1 (seizure-free) to 10 (daily or multiple seizures); for Initial Score: day 0; for Final Score: day 60, BID
Description: (§1) This example examines the ability of embodiments of the invention versus phenobarbital to treat seizures.
(§2) The patient group is twenty-four dogs suffering from seizures as diagnosed by their referring veterinarian. The patient group is broken into six groups of four animals. The first group receives phenobarbital as the sole active agent; the second group receives a composition comprising phenobarbital and Keppra®; the third group receives a composition comprising HMW HA as the sole active agent; the fourth group receives a composition comprising CBD as the sole active agent; the fifth group receives a composition comprising HMW HA and CBD as the active agents; and the sixth group receives a composition comprising HMW HA, CBD, valerian root, and scutillaria as the active agents.
(§3) Each composition is administered for a period of sixty (60) days, BID. Each dog is evaluated on days 0 (“Initial Score”), 15, 30, 45, and 60 (“Final Score”) of treatment. The results are averaged and characterized on a scale of 1 (seizure-free) to 10 (daily seizures or multiple seizures during the event).
The following canine scores are observed and the results depicted in FIG. 6: […]

[2] = system: dogs suffering from osteoarthritis; test: Example 9: pain relief and side effects in canine osteoarthritis (CBD Complex); details: dogs with osteoarthritis, 4 weeks of administration, group average
Description: This example examines the ability of various compositions to minimize pain and examines the level of adverse side effects of each composition.
At the outset of the study, participants receive a full physical examination, including weight measurement, thigh circumference, and CBC/blood chemistries. Because osteoarthritis is not only a disease of pain, but one characterized by behavioral, appetite, anxiety/aggression, family socialization, and sleep aberrations, the pet's owners are familiarized with the pain scale (canine orthopedic index) and additional behavioral assessment log.
The patient group is twenty-four dogs suffering from osteoarthritis, broken into eight groups of three dogs. The first group receives a control composition with no active agent; the second group receives a composition comprising HA as the sole active agent; the third group receives a composition comprising HMW HA as the sole active agent; the fourth group receives a composition comprising CBD as the sole active agent; the fifth group receives a composition comprising HA and CBD as the active agents; the sixth group receives a composition comprising HMW HA and CBD Complex as the active agents; the seventh group receives a composition comprising Rimadyl as the active agent; and the eighth group receives a composition comprising Meloxicam as the active agent.
Each composition is administered for a period of four (4) weeks. The owner completes the electronic log questionnaire each week. At the end of the 4-week study, participants have another full physical examination, including weight measurement, thigh circumference, and CBC/blood chemistries, with an exit interview of the owners to gain final impressions.
Each group is evaluated for pain scores and the scores averaged. The following scores are observed and the results depicted in FIG. 9: […]

[3] = system: dogs suffering from heart failure; test: Example 7: heart failure in dogs; details: heart failure scale 1 (few to no clinical signs) to 10 (severe); for Initial Score: day 0; for Final Score: day 90, BID
Description: (§4) This example examines the ability of embodiments of the invention versus enalapril to treat heart failure.
(§5) The patient group is twenty-four dogs suffering from heart failure.
The patient group is broken into six groups of four dogs. The first group receives enalapril as the sole active agent; the second group receives a composition comprising enalapril and Lasix®; the third group receives a composition comprising HMW HA as the sole active agent; the fourth group receives a composition comprising CBD as the sole active agent; the fifth group receives a composition comprising HMW HA and CBD as the active agents; and the sixth group receives a composition comprising HMW HA, CBD, liposomal CoQ10, hawthorn berry, and ginko biloba as the active agents.
(§6) Each composition is administered for a period of ninety (90) days, BID. Each animal is evaluated on days 0 (“Initial Score”), 30, 60, and 90 (“Final Score”) of treatment. The results are averaged and characterized on a scale of 1 (few to no clinical signs of heart failure) to 10 (severe heart failure).
The following canine scores are observed and the results depicted in FIG. 7: […]

[4] = system: dogs suffering from heart failure; test: Example 15: heart failure in dogs (CBD Complex); details: heart failure scale 1 (few to no clinical signs) to 10 (severe); for Initial Score: day 0; for Final Score: day 90, BID
Description: as §4, §5
The patient group is broken into six groups of four dogs. The first group receives enalapril as the sole active agent; the second group receives a composition comprising enalapril and Lasix®; the third group receives a composition comprising HMW HA as the sole active agent; the fourth group receives a composition comprising CBD as the sole active agent; the fifth group receives a composition comprising HMW HA and CBD Complex as the active agents; and the sixth group receives a composition comprising HMW HA, CBD Complex, liposomal CoQ10, hawthorn berry, and ginko biloba as the active agents.
as §6

[5] = system: dogs suffering from seizures; test: Example 14: seizures in dogs (CBD Complex); details: seizure scale 1 (seizure-free) to 10 (daily or multiple seizures); for Initial Score: day 0; for Final Score: day 60, BID
Description: as §1
as §2, with “and CBD Complex as the” for “and CBD as the”, “HMW HA, CBD Complex, valerian root,” for “HMW HA, CBD, valerian root,”
as §3
The following canine scores are observed and the results depicted in FIG. 14: […]

[6] = system: dogs with a history of severe, chronic skin issues, atopy, pruritis, yeast overgrowth, and/or infection; test: Example 16: skin conditions (itch score) and side effects in dogs (CBD Complex); details: for Average Side Effect Score: dogs with skin conditions, 60 days BID; for Initial Itch Score / Final Itch Score: itch scale 0 (no itching) to 10 (extremely severe); for Initial Itch Score: day 0; for Final Itch Score: day 60, BID
Description: This example examines the ability of embodiments of the invention versus prednisone to treat skin conditions.
The patient group is twenty-four dogs with a history of severe, chronic skin issues, atopy, pruritis, yeast overgrowth, and/or infection, as diagnosed by their referring veterinarian. The patient group is broken into six groups of four animals. The first group receives prednisone as the sole active agent; the second group receives a composition comprising prednisone and HMW HA as the active agents; the third group receives a composition comprising HMW HA as the sole active agent; the fourth group receives a composition comprising CBD as the sole active agent; the fifth group receives a composition comprising HMW HA and CBD Complex as the active agents; and the sixth group receives a composition comprising HMW HA, CBD Complex, quercetin, and nettles as the active agents.
Each composition is administered for a period of sixty (60) days, BID. Each dog is evaluated on days 0 (“Initial Score”), 20, 40, and 60 (“Final Score”) of treatment. The results are averaged and characterized on a scale of 0 (no itching—normal dog), 2 (very mild itching—only occasional episodes), 4 (mild itching), 6 (moderate itching—regular episodes), 8 (severe itching—prolonged episodes), to 10 (extremely severe itching—almost continuous).

Compound	Initial Score [1]	Final Score [1]	Average Pain Score [2]	Average Side Effect Score [2]	Average Pain Score ([2]; listed as CBD alone)	Average Side Effect Score ([2]; listed as CBD alone)	Initial Score [3]	Final Score [3]	Initial Score [4]	Final Score [4]	Initial Score [5]	Final Score [5]	Average Side Effect Score [6]	Initial Itch Score [6]	Final Itch Score [6]	Average Pain Score ([2]; listed as HMW HA alone)	Average Side Effect Score ([2]; listed as HMW HA alone)
C=C(C)[C@@H]1CCC(C)=C[C@H]1c1c(O)cc(CCCCC)cc1O [CBD Alone, 2-[(1R,6R)-3-methyl-6-prop-1-en-2-ylcyclohex-2-en-1-yl]-5-pentylbenzene-1,3-diol]	9	4	19	0.5	not especially effective in reducing pain	even lower degree of adverse side effects	8	4	8	4	9	4	.5	9	5	–	–
hyaluronic acid [HMW HA Alone]	9	5	16	4	–	–	8	4	8	4	9	5	4	9	7	only slightly reduce pain	low degree of adverse side effects
